In brackets after ≈: the same amount, converted by molar mass.
Columns and labels:
RAW264.7 [1] = test: Antiinflammatory activity in mouse RAW264.7 cells assessed as decrease in LPS-induced NO secretion preincubated for 1 hr followed by LPS stimulation and measured after 24 hrs by Griess reagent based assay; type: functional, cell-based
Toll-like receptor 4 [2] = molecular target: T1, Toll-like receptor 4 (Homo sapiens, UniProt O00206); test: Inhibition of human TLR4 expressed in HEK293-Blue hTLR4 cells assessed as SEAP expression; type: cell-based, HEK-Blue hTLR4
T1 sequence (O00206 whole entry): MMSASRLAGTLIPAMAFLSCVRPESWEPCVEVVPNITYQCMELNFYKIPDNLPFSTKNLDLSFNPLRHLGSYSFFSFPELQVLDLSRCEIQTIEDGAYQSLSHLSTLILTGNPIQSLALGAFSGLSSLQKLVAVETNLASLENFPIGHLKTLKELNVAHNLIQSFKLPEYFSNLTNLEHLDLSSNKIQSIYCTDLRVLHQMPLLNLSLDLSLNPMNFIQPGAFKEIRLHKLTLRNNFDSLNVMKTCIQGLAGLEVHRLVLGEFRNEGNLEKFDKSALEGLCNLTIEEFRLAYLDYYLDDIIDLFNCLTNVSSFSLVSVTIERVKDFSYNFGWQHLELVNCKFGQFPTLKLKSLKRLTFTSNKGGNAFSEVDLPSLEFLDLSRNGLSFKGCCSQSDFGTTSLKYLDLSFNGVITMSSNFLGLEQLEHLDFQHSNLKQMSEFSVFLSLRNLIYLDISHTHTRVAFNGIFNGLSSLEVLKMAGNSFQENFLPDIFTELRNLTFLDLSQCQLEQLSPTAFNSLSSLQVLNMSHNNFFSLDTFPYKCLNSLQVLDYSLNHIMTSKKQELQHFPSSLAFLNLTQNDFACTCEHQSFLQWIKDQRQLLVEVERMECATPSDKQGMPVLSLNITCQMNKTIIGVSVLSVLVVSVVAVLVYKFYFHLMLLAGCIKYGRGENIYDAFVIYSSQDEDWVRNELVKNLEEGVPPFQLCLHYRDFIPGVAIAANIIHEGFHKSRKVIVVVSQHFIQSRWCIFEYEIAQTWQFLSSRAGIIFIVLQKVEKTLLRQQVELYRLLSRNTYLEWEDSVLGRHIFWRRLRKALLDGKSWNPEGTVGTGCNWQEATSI

HEK293 = test: Cytotoxicity against HEK293 cells assessed as cell survival at 20 uM incubated for 16 to 24 hrs by MTT method; type: functional; conditions: Homo sapiens, time 16-24 hrs, read-out: Activity
Toll-like receptor 4 [3] = molecular target: T1, Toll-like receptor 4; test: Inhibition of TLR4 in HEK293 cells assessed as reduction in LPS-stimulated NF-kappaB activation at 20 uM incubated for 16 to 24 hrs by SEAP reporter gene assay relative to control; type: cell-based; conditions: time 16-24 hrs
Toll-like receptor 4 [4] = molecular target: T1, Toll-like receptor 4; test: Inhibition of LPS-stimulated TLR4 activation in HEK-Blue-hTLR4 cells assessed as reduction in SEAP release preincubated for 15 mins followed by LPS stimulation and measured after 16 hrs by microplate reader assay; type: cell-based
HEK293T = test: Inhibition of LPS-stimulated human TLR4/MD2 expressed in HEK293T cells assessed as reduction in NF-kappaB activation preincubated for 1 hr followed by LPS stimulation for 8 hrs by luciferase reporter gene assay; type: cell-based; conditions: time 9.0 hrs
[5] = Cytotoxicity against HEK293 cells assessed as cell survival at 10 uM incubated for 16 to 24 hrs by MTT method; type: toxicity, cell-based; conditions: human, time 16-24 hrs, read-out: Activity
Toll-like receptor 4 [6] = molecular target: T1, Toll-like receptor 4; test: Inhibition of TLR4 in HEK293 cells assessed as reduction in LPS-stimulated NF-kappaB activation at 10 uM incubated for 16 to 24 hrs by SEAP reporter gene assay relative to control; type: cell-based; conditions: time 16-24 hrs
[7] = Inhibition of LPS-induced NO production in mouse BV-2 microglia cells incubated for 24 hrs by 2,3-diaminonaphthalene assay; type: functional, cell-based; conditions: BV-2, 24 h
[8] = Inhibition of TLR4 expression in human monocytes; type: functional, cell-based; conditions: Monocyte
[9] = Inhibition of LPS-stimulated NO production in mouse RAW264.7 cells at 10 nM incubated for overnight by 2,3-diaminonaphthalene assay relative to control; type: functional
RAW264.7 [10] = test: Antiinflammatory activity in mouse RAW264.7 cells assessed as decrease in LPS-induced TNF-alpha secretion preincubated for 1 hr followed by LPS stimulation and measured after 24 hrs by ELISA; type: functional, cell-based
RAW264.7 [11] = test: Antiinflammatory activity in mouse RAW264.7 cells assessed as decrease in LPS-induced IL-1beta secretion preincubated for 1 hr followed by LPS stimulation and measured after 24 hrs by ELISA; type: functional, cell-based
[12] = Inhibition of HMGB1-induced TLR4 protein expression in mouse primary microglia preincubated for 12 hrs followed by HMGB1 stimulation for 30 mins by Western blot analysis; type: functional; conditions: time 12.5 hrs
Liver [13] = test: Inhibition of CIS-induced TLR4 mRNA expression in rat hepatic tissue by SYBR-green dye based RT-PCR analysis; type: functional
Liver [14] = test: Inhibition of CIS-induced MyD88 mRNA expression in rat hepatic tissue by SYBR-green dye based RT-PCR analysis; type: functional
Liver [15] = test: Inhibition of CIS-induced TLR4 protein expression in rat hepatic tissue by Western blot analysis; type: functional
Liver [16] = test: Inhibition of CIS-induced NF-kappaBp53 mRNA expression in rat hepatic tissue by SYBR-green dye based RT-PCR analysis; type: functional
Toll-like receptor 4 [17] = molecular target: T1, Toll-like receptor 4; test: Binding affinity to TLR4 in human THP-1 monocytes after 48 hrs by ELISA; type: cell-based

COc1ccc(C(C)=O)c(Oc2ccc(NC(=O)/C=C/c3cc(OC)c(OC)c(OC)c3)cc2)c1 gave an IC50 (RAW264.7 [1]) of 6.96 µM.

With COc1ccc(N/C(N)=N/c2ncc(C(=O)c3ccccc3O)cn2)cc1 the IC50 (Toll-like receptor 4 [2]) was 27 µM.

CC(C)Nc1ccc(N2CC[C@]34CCCC[C@H]3[C@H]2Cc2ccc(O)cc24)cc1 showed a viability at 20 µM (HEK293) of 89.9% and an inhibition (Toll-like receptor 4 [3]) of 99.8%.

In the case of CCCCCCCCC/C=C\CCCCCCC(=O)N[C@H]1[C@H](OC(=O)CCC(=O)O)O[C@H](CO)[C@@H](OC(=O)CCC(=O)O)[C@@H]1OC(=O)CCCCCCCCCCCCC, the IC50 (Toll-like receptor 4 [4]) is reported as 2.7 µM.

In the case of CCCCC/C=C\C/C=C\CCCCCCC(=O)N[C@H]1[C@H](OC(=O)CCC(=O)O)O[C@H](CO)[C@@H](OC(=O)CCC(=O)O)[C@@H]1OC(=O)CCCCCCCCCCCCC, the IC50 (Toll-like receptor 4 [4]) is reported as 6.61 µM.

Work on O=C(/C=C/c1ccc(O)c(O)c1)OCCc1ccccc1 yielded an MIC (HEK293T) of 1 µM (≈ 0.284 µg/mL).

CCCCCCCC/C=C\CCCCCCC(=O)N[C@H]1[C@H](OC(=O)CCC(=O)O)O[C@H](CO)[C@@H](OC(=O)CCC(=O)O)[C@@H]1OC(=O)CCCCCC/C=C\CCCCCCCC showed an IC50 (Toll-like receptor 4 [4]) of 3.5 µM.

CCCCCCCCCCCCCC(=O)N[C@H]1[C@H](OC(=O)CCC(=O)O)O[C@H](CO)[C@@H](OC(=O)CCC(=O)O)[C@@H]1OC(=O)CCCCCCCCCCCCC showed an IC50 (Toll-like receptor 4 [4]) of 5.91 µM.

For C=CC(=O)N(c1ccc(F)cc1Cl)S(=O)(=O)N1CCCCC1C(=O)OC (stereo not drawn), the viability at 10 µM [5] was 92.2% and the inhibition (Toll-like receptor 4 [6]) was 100%.

O=C1CC[C@@]2(O)[C@H]3Cc4ccc(O)c5c4[C@@]2(CCN3CC2CC2)[C@H]1O5 [NALTREXONE] showed an IC50 [7] of 106 µM.

For CC(=O)N[C@H]1[C@H](Oc2ccc([N+](=O)[O-])cc2)O[C@H](CO)[C@@H](O)[C@@H]1O, the IC50 [8] was 0.042 µM.

Work on COc1ccc(C(=O)c2cnc(/N=C(\N)Nc3ccc(F)cc3)nc2)c(O)c1 yielded an IC50 (Toll-like receptor 4 [2]) of 18 µM.

With N/C(=N\c1ncc(C(=O)c2cc(Cl)ccc2O)cn1)Nc1ccc(F)cc1 the IC50 (Toll-like receptor 4 [2]) was 40 µM.

CCOC(=O)C1=C[C@@H](O)CC[C@H]1S(=O)(=O)Cc1ccc(F)cc1Cl showed an inhibition at 0.01 µM [9] of 98%.

Work on O=S(=O)(Nc1ccc(C(F)(F)F)cc1)c1cccc2cccnc12 yielded an IC50 (RAW264.7 [10]) of 9.74 µM, an IC50 (RAW264.7 [1]) of 2.61 µM and an IC50 (RAW264.7 [11]) of 12.7 µM.

For COc1ccc(C[C@H]2COC(=O)[C@@H]2Cc2ccc(O[C@@H]3O[C@H](CO)[C@@H](O)[C@H](O)[C@H]3O)c(OC)c2)cc1OC [ARCTIIN], the MIC [12] was no more than 50 µM.

With CC(/C=C/C=C(\C)C(=O)O[C@@H]1O[C@H](CO[C@@H]2O[C@H](CO)[C@@H](O)[C@H](O)[C@H]2O)[C@@H](O)[C@H](O)[C@H]1O)=C\C=C\C=C(C)\C=C\C=C(/C)C(=O)O[C@@H]1O[C@H](CO[C@@H]2O[C@H](CO)[C@@H](O)[C@H](O)[C@H]2O)[C@@H](O)[C@H](O)[C@H]1O [CROCIN] the “inhibition (INH)” value (Liver [13]) was 57.7%, the “inhibition (INH)” value (Liver [14]) was 53.2% and the “inhibition (INH)” value (Liver [15]) was 53.1%. For the same compound, the “inhibition (INH)” value (Liver [16]) was 66.2%.

Compound C=CC(=O)N(c1ccc(F)cc1Cl)S(=O)(=O)c1ccccc1C(=O)OC has a viability at 10 µM [5] of 88.5% and an inhibition (Toll-like receptor 4 [6]) of 100%.

With CCCCC/C=C\C/C=C\CCCCCCC(=O)N[C@H]1[C@H](OC(=O)CCC(=O)O)O[C@H](CO)[C@@H](OC(=O)CCC(=O)O)[C@@H]1OC(=O)CCCCCC/C=C\C/C=C\CCCCC the IC50 (Toll-like receptor 4 [4]) was 4.35 µM.

In the case of CC(=O)N[C@H]1[C@H](OC2CCCCC2)O[C@H](CO)[C@@H](O[C@@H]2O[C@H](CO)[C@@H](O[C@@H]3O[C@H](CO)[C@@H](O[C@@H]4O[C@H](CO)[C@@H](O[C@@H]5O[C@H](CO)[C@@H](O[C@@H]6O[C@H](CO)[C@@H](O)[C@H](O)[C@H]6NC(C)=O)[C@H](O)[C@H]5NC(C)=O)[C@H](O)[C@H]4NC(C)=O)[C@H](O)[C@H]3NC(C)=O)[C@H](O)[C@H]2NC(C)=O)[C@@H]1O, the IC50 (Toll-like receptor 4 [17]) is reported as 0.15 µM.

Source: ChEMBL document CHEMBL5126542, “Toll-like receptor 4 (TLR4) inhibitors: Current research and prospective” (Eur J Med Chem, 2022)
